Each structure is given as a SMILES string.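 Assay format: 96-well plates, 48-hour exposure. At the GI50, growth is halved.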 Calls of active or inactive are those of the source. No stated cut-off is given here; in the data, active = GI50 up to about 1.1 µM and inactive = higher. Bounds are passed on as bounds.

Holding throughout (assay): growth of human tumour cells (NCI), 48 h
Assay [1] concerns A549.
Assay [2] has as its system CAKI-1.
In assay [3] the test system is COLO 205.
The test system of assay [4] is EKVX.
The subject of assay [5] is HCT-116.
Assay [6] deals with HCT-15.
The subject of assay [7] is HL-60.
For assay [8], the system named is HOP-92.
In assay [9] the test system is IGROV-1.
The subject of assay [10] is K562.
In assay [11] the test system is M14.
The test system of assay [12] is NCI-H23.
Assay [13] has as its system OVCAR-8.
Assay [14] deals with SK-MEL-28.
In assay [15] the test system is SNB-19.
The test system of assay [16] is SR.
Assay [17] has as its system UO-31.
The test system of assay [18] is DU-145.
Assay [19] has as its system NCI/ADR-RES.

For `NS(=O)(=O)c1cc2c(cc1Cl)NC(C(=O)c1cc(=O)c3ccc(O)cc3o1)=NS2(=O)=O`, the GI50 in assay [1] is > 100 µM (inactive); in assay [2] it was > 100 µM (inactive); in [3], > 100 µM (inactive); in assay [4], > 100 µM (inactive); in [5], > 100 µM (inactive); in [6], greater than 100 µM. Besides, the GI50 in [7], in assay [8], in [9], in assay [10], in assay [11] and in [12] was > 100 µM (inactive) in each case. Also, the GI50 in [13], in [14], in [15], in [16] and in assay [17] was > 100 µM (inactive) in each case.

In the case of `O=C(CSc1nc2ccc(I)cc2c(=O)n1Cc1ccccc1)NN1C(=O)CCC1=O`, the GI50 in assay [1] was 49.4 µM (inactive); in assay [2], 1.65 µM (inactive); in [3], 34 µM (inactive); in assay [18], > 100 µM (inactive); in assay [4] it was 34.1 µM (inactive); in assay [5], 43.3 µM (inactive). Besides, the GI50 was 22.5 µM in [6]; 28.6 µM (inactive) in assay [7]; 25.5 µM (inactive) in [8]; 29.9 µM (inactive) in assay [9]; 33.3 µM (inactive) in assay [10]; 79.8 µM (inactive) in assay [11]. Also, the GI50 is 17.6 µM (inactive) in [12]; 37.2 µM (inactive) in assay [19]; 37.6 µM (inactive) in assay [13]; 61.4 µM (inactive) in assay [14]; 85.3 µM (inactive) in assay [15]; 31.9 µM (inactive) in assay [16].

On to `COC(=O)C1C2CC3C1C3C2C(=O)OC` (stereo not given), for which the GI50 in assay [1], in [2], in assay [3], in [18], in assay [4] and in assay [5] was > 100 µM (inactive) throughout. For the same molecule, the GI50 was greater than 100 µM in assay [6]; > 100 µM (inactive) in assay [8]; > 100 µM (inactive) in assay [9]; > 100 µM (inactive) in assay [10]; > 100 µM (inactive) in assay [11]; > 100 µM (inactive) in assay [12]. Moreover, the GI50 in [19], in assay [13], in [14], in assay [15] and in [17] was > 100 µM (inactive) each time.

Consider `COc1ccc(C(=O)/C=C/c2ccc(OCCCOc3ccc(/C=C/C(=O)c4ccc(OC)c(OC)c4)cc3)cc2)cc1OC`, for which the GI50 in assay [1], in assay [2], in [3], in assay [18], in assay [4] and in assay [5] was > 100 µM (inactive) each time. Moreover, the GI50 in assay [6] is greater than 100 µM; in [7], > 100 µM (inactive); in assay [9], > 100 µM (inactive); in [10], > 100 µM (inactive); in [11], > 100 µM (inactive); in [19] it was > 100 µM (inactive). The GI50 in assay [13], in assay [14], in assay [15], in assay [16] and in assay [17] was > 100 µM (inactive) throughout.

Turning to `CC(Oc1cc2oc(=O)cc(-c3ccccc3)c2cc1Cl)C(=O)O` (stereo not given), the GI50 in assay [1], in [2], in assay [3], in assay [4], in assay [5] and in assay [7] was > 100 µM (inactive) throughout. In addition, the GI50 in [8], in [9], in assay [10], in [11], in assay [12] and in assay [13] was > 100 µM (inactive) throughout. The GI50 in assay [14], in assay [15], in assay [16] and in assay [17] was > 100 µM (inactive) in each case.

As to `CC1C(c2ccc3c(c2)OCO3)c2cc3c(cc2OC1N1CCCC1)OCO3` (stereo not given), the GI50 was 31.3 µM (inactive) in assay [1]; 11.6 µM (inactive) in assay [2]; 31.6 µM (inactive) in [3]; 34.1 µM (inactive) in assay [18]; 37.9 µM (inactive) in assay [4]; 18 µM (inactive) in [5]. Also, the GI50 in [6] is 30 µM; in [9], 30.3 µM (inactive); in assay [10] it was 24.4 µM (inactive); in [11], 25.5 µM (inactive); in assay [12], 38.7 µM (inactive); in assay [19], 29.2 µM (inactive). The GI50 in assay [13] is 35.8 µM (inactive); in assay [14], 37.1 µM (inactive); in assay [15], 20.9 µM (inactive); in assay [16], 35.5 µM (inactive); in assay [17], 17.2 µM (inactive).

As to `CCOC(=O)c1[nH]c(-c2[nH]c(-c3[nH]c(-c4[nH]c(C(=O)OCC)c(C)c4C(=O)OCC)c(C(=O)OCC)c3C)c(C)c2C(=O)OCC)c(C(=O)OCC)c1C`, the GI50 in assay [1], in [2], in assay [3], in assay [18], in [4] and in [5] was > 100 µM (inactive) throughout. The GI50 in [6] was greater than 100 µM; in assay [7], > 100 µM (inactive); in assay [9], > 100 µM (inactive); in [10], > 100 µM (inactive); in [11] it was > 100 µM (inactive); in assay [12], > 100 µM (inactive). Besides, the GI50 in [19], in assay [13], in assay [14] and in assay [15] was > 100 µM (inactive) throughout.

As to `Cc1ccc(NC(=O)CCC(=O)C2CC(=O)CC/C2=N\NC(=O)c2cc3ccccc3cc2O)cc1C` (stereo not given), the GI50 in assay [1] is 25.1 µM (inactive); in assay [2] it was 19 µM (inactive); in [3] it was 16.9 µM (inactive); in [4] it was 29 µM (inactive); in assay [5] it was 19.6 µM (inactive); in assay [6], 14.7 µM. Further, the GI50 in assay [7] was 4.35 µM (inactive); in assay [8], 14.3 µM (inactive); in [9] it was 15.5 µM (inactive); in [10], 8.18 µM (inactive); in [11], 25.8 µM (inactive); in [12], 15.7 µM (inactive). Further, the GI50 in [13] was 24.7 µM (inactive); in [14], 65 µM (inactive); in [15], 40.7 µM (inactive); in assay [16], 22.1 µM (inactive); in assay [17], 4.13 µM (inactive).

(Values after ChEMBL document CHEMBL1201862, “PubChem BioAssay data set” (2004).)
